# How the values were obtained:
# [1] = system: HIV-1 strains, for e.g., 92HT599; assay: Antiviral activity: p24 estimation in HIV-1 infected MT-2 cells; format: cell-based; details: Human immunodeficiency virus 1, MT2; MT-2 cells, p24; read-out: Antiviral activity IC50
# Method: MT-2 cells were infected with required number of TCID50's of HIV-1 strains, for e.g., 92HT599. The infected cells were plated at the concentration of 30,000 cells per well in a 96 well plate. Test compound was added to the 96 well plate with the final concentration of DMSO (vehicle—not more than 1%). The plates are then incubated in a CO2 incubator for ˜96 hours (˜4 days) for viral infection. At the end of incubation period an aliquot from each well was taken for p24 estimation. The quantitation of p24 is an estimated index for antiviral activity of the compound. Percent inhibition was calculated with reference to control values (vehicle controls).
# p-24 estimation was carried out using Advance biosciences kit as per the procedure detailed by supplier.
# [2] = Single dose oral pharmacokinetic study; set-up: species or system mice; details: mouse, in vivo, po, 30 mg/kg
# Method: The test item was administered through oral route to animals (rat/mice) at 30 mg/kg dose in a suitable vehicle at 10 ml/kg dose volume. Blood samples (˜50 uL at each time point) were collected from retro-orbital plexus using K3 EDTA as anticoagulant in eppendorf tubes at defined time intervals under light ether anesthesia. The samples were centrifuged at 3500×g to separate plasma and stored at −80° C. until analysis.
# Sample analysis: Test samples were analyzed using LC-MS-MS after developing fit-for-purpose method for each of test compound.
SMILES,IC50 [1] [nM],AUC(0-t) [2] [µg·h/mL],Cmax [2] [ng/mL]
"C=C(C)[C@@H]1CC[C@]2(C(=O)N3CCC[C@H]3c3nc(-c4ccccc4)cn3C)CC[C@]3(C)[C@H](CC[C@@H]4[C@@]5(C)CC[C@H](OC(=O)[C@H]6C[C@@H](C(=O)O)C6(C)C)C(C)(C)[C@@H]5CC[C@]43C)[C@@H]12 [Compound 1, (1R,3S)-2,2-dimethyl-3-((((1R,3aS,5aR,5bR,7aR,9S,11aR,11bR,13aR,13bR)-5a,5b,8,8,11a-pentamethyl-3a-((S)-2-(1-methyl-4-phenyl-1H-imidazol-2-yl)pyrrolidine-1-carbonyl)-1-(prop-1-en-2-yl)icosahydro-1H-cyclopenta[a]chrysen-9-yl)oxy)carbonyl)cyclobutane-1-carboxylic acid]",6.74,250,8540
"C=C(C)[C@@H]1CC[C@]2(C(=O)N3CCC[C@H]3c3nc(-c4ccccc4)cn3CCOCCOC)CC[C@]3(C)[C@H](CC[C@@H]4[C@@]5(C)CC[C@H](OC(=O)[C@H]6C[C@@H](C(=O)O)C6(C)C)C(C)(C)[C@@H]5CC[C@]43C)[C@@H]12 [Compound 2, (1R,3S)-3-((((1R,3aS,5aR,5bR,7aR,9S,11aR,11bR,13aR,13bR)-3a-((S)-2-(1-(2-(2-methoxyethoxy)ethyl)-4-phenyl-1H-imidazol-2-yl)pyrrolidine-1-carbonyl)-5a,5b,8,8,11a-pentamethyl-1-(prop-1-en-2-yl)icosahydro-1H-cyclopenta[a]chrysen-9-yl)oxy)carbonyl)-2,2-dimethyl cyclobutane-1-carboxylic acid]",,335,11400
"C=C(C)[C@@H]1CC[C@]2(C(=O)N3CCC[C@H]3c3nc(-c4ccccc4)cn3CCN3CCOCC3)CC[C@]3(C)[C@H](CC[C@@H]4[C@@]5(C)CC[C@H](OC(=O)[C@H]6C[C@@H](C(=O)O)C6(C)C)C(C)(C)[C@@H]5CC[C@]43C)[C@@H]12 [Compound 3, (1R,3S)-2,2-dimethyl-3-((((1R,3aS,5aR,5bR,7aR,9S,11aR,11bR,13aR,13bR)-5a,5b,8,8,11a-pentamethyl-3a-((S)-2-(1-(2-morpholinoethyl)-4-phenyl-1H-imidazol-2-yl)pyrrolidine-1-carbonyl)-1-(prop-1-en-2-yl)icosahydro-1H-cyclopenta[a]chrysen-9-yl)oxy)carbonyl)cyclo butane-1-carboxylic acid]",113,407,14700
"C=C(C)[C@@H]1CC[C@]2(C(=O)N3CCC[C@H]3c3nc(-c4ccccc4)cn3CCOC)CC[C@]3(C)[C@H](CC[C@@H]4[C@@]5(C)CC[C@H](OC(=O)[C@H]6C[C@@H](C(=O)O)C6(C)C)C(C)(C)[C@@H]5CC[C@]43C)[C@@H]12 [Compound 4, (1R,3S)-3-((((1R,3aS,5aR,5bR,7aR,9S,11aR,11bR,13aR,13bR)-3a-((S)-2-(1-(2-methoxyethyl)-4-phenyl-1H-imidazol-2-yl)pyrrolidine-1-carbonyl)-5a,5b,8,8,11a-pentamethyl-1-(prop-1-en-2-yl)icosahydro-1H-cyclopenta[a]chrysen-9-yl)oxy)carbonyl)-2,2-dimethylcyclobutane-1-carboxylic acid]",,291,9220
"C=C(C)[C@@H]1CC[C@]2(C(=O)N3CCC[C@H]3c3nc(-c4ccccc4)cn3CCN(C)C)CC[C@]3(C)[C@H](CC[C@@H]4[C@@]5(C)CC[C@H](OC(=O)[C@H]6C[C@@H](C(=O)O)C6(C)C)C(C)(C)[C@@H]5CC[C@]43C)[C@@H]12 [Compound 5, (1R,3S)-3-((((1R,3aS,5aR,5bR,7aR,9S,11aR,11bR,13aR,13bR)-3a-((S)-2-(1-(2-(dimethylamino)ethyl)-4-phenyl-1H-imidazol-2-yl)pyrrolidine-1-carbonyl)-5a,5b,8,8,11a-pentamethyl-1-(prop-1-en-2-yl)icosahydro-1H-cyclopenta[a]chrysen-9-yl)oxy)carbonyl)-2,2-dimethylcyclobutane-1-carboxylic acid]",73.2,292,10400
"C=C(C)[C@@H]1CC[C@]2(C(=O)N3CCC[C@H]3c3nc(-c4cccnc4)cn3CCN(C)C)CC[C@]3(C)[C@H](CC[C@@H]4[C@@]5(C)CC[C@H](OC(=O)[C@H]6C[C@@H](C(=O)O)C6(C)C)C(C)(C)[C@@H]5CC[C@]43C)[C@@H]12 [Compound 6, (1R,3S)-3-((((1R,3aS,5aR,5bR,7aR,9S,11aR,11bR,13aR,13bR)-3a-((S)-2-(1-(2-(dimethylamino)ethyl)-4-(pyridin-3-yl)-1H-imidazol-2-yl)pyrrolidine-1-carbonyl)-5a,5b,8,8,11a-pentamethyl-1-(prop-1-en-2-yl)icosahydro-1H-cyclopenta[a]chrysen-9-yl)oxy)carbonyl)-2,2-dimethyl cyclobutane-1-carboxylic acid]",2.55,212,9460
"C=C(C)[C@@H]1CC[C@]2(C(=O)N3CCC[C@H]3c3nc(-c4ccc(F)cc4)cn3CCN(C)C)CC[C@]3(C)[C@H](CC[C@@H]4[C@@]5(C)CC[C@H](OC(=O)[C@H]6C[C@@H](C(=O)O)C6(C)C)C(C)(C)[C@@H]5CC[C@]43C)[C@@H]12 [Compound 7, (1R,3S)-3-((((1R,3aS,5aR,5bR,7aR,9S,11aR,11bR,13aR,13bR)-3a-((S)-2-(1-(2-(dimethylamino)ethyl)-4-(4-fluorophenyl)-1H-imidazol-2-yl)pyrrolidine-1-carbonyl)-5a,5b,8,8,11a-pentamethyl-1-(prop-1-en-2-yl)icosahydro-1H-cyclopenta[a]chrysen-9-yl)oxy)carbonyl)-2,2-dimethyl cyclobutane-1-carboxylic acid]",75.3,,
"C=C(C)[C@@H]1CC[C@]2(C(=O)N3CCC[C@H]3c3nc(-c4ccncc4)cn3CCN(C)C)CC[C@]3(C)[C@H](CC[C@@H]4[C@@]5(C)CC[C@H](OC(=O)[C@H]6C[C@@H](C(=O)O)C6(C)C)C(C)(C)[C@@H]5CC[C@]43C)[C@@H]12 [Compound 8, (1R,3S)-3-((((1R,3aS,5aR,5bR,7aR,9S,11aR,11bR,13aR,13bR)-3a-((S)-2-(1-(2-(dimethylamino)ethyl)-4-(pyridin-4-yl)-1H-imidazol-2-yl)pyrrolidine-1-carbonyl)-5a,5b,8,8,11a-pentamethyl-1-(prop-1-en-2-yl)icosahydro-1H-cyclopenta[a]chrysen-9-yl)oxy)carbonyl)-2,2-dimethyl cyclobutane-1-carboxylic acid]",12.5,243,9080
"C=C(C)[C@@H]1CC[C@]2(C(=O)N3CCC[C@H]3c3nc(-c4ccncc4)cn3CCN3CCCC3)CC[C@]3(C)[C@H](CC[C@@H]4[C@@]5(C)CC[C@H](OC(=O)[C@H]6C[C@@H](C(=O)O)C6(C)C)C(C)(C)[C@@H]5CC[C@]43C)[C@@H]12 [Compound 9, (1R,3S)-2,2-dimethyl-3-((((1R,3aS,5aR,5bR,7aR,9S,11aR,11bR,13aR,13bR)-5a,5b,8,8,11a-pentamethyl-1-(prop-1-en-2-yl)-3a-((S)-2-(4-(pyridin-4-yl)-1-(2-(pyrrolidin-1-yl)ethyl)-1H-imidazol-2-yl)pyrrolidine-1-carbonyl)icosahydro-1H-cyclopenta[a]chrysen-9-yl)oxy)carbonyl) cyclobutane-1-carboxylic acid]",10.6,260,6900
"C=C(C)[C@@H]1CC[C@]2(C(=O)N3CCC[C@H]3c3nc(-c4ccccc4)cn3CCN3CCCC3)CC[C@]3(C)[C@H](CC[C@@H]4[C@@]5(C)CC[C@H](OC(=O)[C@H]6C[C@@H](C(=O)O)C6(C)C)C(C)(C)[C@@H]5CC[C@]43C)[C@@H]12 [Compound 10, (1R,3S)-2,2-dimethyl-3-((((1R,3aS,5aR,5bR,7aR,9S,11aR,11bR,13aR,13bR)-5a,5b,8,8,11a-pentamethyl-3a-((S)-2-(4-phenyl-1-(2-(pyrrolidin-1-yl)ethyl)-1H-imidazol-2-yl)pyrrolidine-1-carbonyl)-1-(prop-1-en-2-yl)icosahydro-1H-cyclopenta[a]chrysen-9-yl)oxy)carbonyl)cyclo butane-1-carboxylic acid]",7.75,145,4640
"C=C(C)[C@@H]1CC[C@]2(C(=O)N3C[C@H](OCCOC)C[C@H]3c3nc(-c4ccccc4)cn3CCN(C)C)CC[C@]3(C)[C@H](CC[C@@H]4[C@@]5(C)CC[C@H](OC(=O)[C@H]6C[C@@H](C(=O)O)C6(C)C)C(C)(C)[C@@H]5CC[C@]43C)[C@@H]12 [Compound 25, (1R,3S)-3-((((1R,3aS,5aR,5bR,7aR,9S,11aR,11bR,13aR,13bR)-3a-((2S,4R)-2-(1-(2-(dimethylamino)ethyl)-4-phenyl-1H-imidazol-2-yl)-4-(2-methoxyethoxy)pyrrolidine-1-carbonyl)-5a,5b,8,8,11a-pentamethyl-1-(prop-1-en-2-yl)icosahydro-1H-cyclopenta[a]chrysen-9-yl)oxy)carbonyl)-2,2-dimethylcyclobutane-1-carboxylic acid]",,617,17600
